# From patent US10669272B2, “Substituted naphthyridinone compounds useful as T cell activators” (BRISTOL-MYERS SQUIBB COMPANY, priority 2018, dated 2020)
# Read-outs that look alike come from different tables or passages of the source.
# Tests used:
# human DGKα = molecular target: T1, human DGKα (Homo sapiens, UniProt P23743); experiment: DGKα LIPGLO assay (extruded liposome substrate), in vitro DGK inhibition; format: biochemical
# T1 construct: TVMV protease cleavage site (C); Hexa-His (C); made in house; host or cells: Sf9 insect cells (baculovirus, Bac-to-Bac)
# T1 sequence (P23743 with tags, fused parts or gaps): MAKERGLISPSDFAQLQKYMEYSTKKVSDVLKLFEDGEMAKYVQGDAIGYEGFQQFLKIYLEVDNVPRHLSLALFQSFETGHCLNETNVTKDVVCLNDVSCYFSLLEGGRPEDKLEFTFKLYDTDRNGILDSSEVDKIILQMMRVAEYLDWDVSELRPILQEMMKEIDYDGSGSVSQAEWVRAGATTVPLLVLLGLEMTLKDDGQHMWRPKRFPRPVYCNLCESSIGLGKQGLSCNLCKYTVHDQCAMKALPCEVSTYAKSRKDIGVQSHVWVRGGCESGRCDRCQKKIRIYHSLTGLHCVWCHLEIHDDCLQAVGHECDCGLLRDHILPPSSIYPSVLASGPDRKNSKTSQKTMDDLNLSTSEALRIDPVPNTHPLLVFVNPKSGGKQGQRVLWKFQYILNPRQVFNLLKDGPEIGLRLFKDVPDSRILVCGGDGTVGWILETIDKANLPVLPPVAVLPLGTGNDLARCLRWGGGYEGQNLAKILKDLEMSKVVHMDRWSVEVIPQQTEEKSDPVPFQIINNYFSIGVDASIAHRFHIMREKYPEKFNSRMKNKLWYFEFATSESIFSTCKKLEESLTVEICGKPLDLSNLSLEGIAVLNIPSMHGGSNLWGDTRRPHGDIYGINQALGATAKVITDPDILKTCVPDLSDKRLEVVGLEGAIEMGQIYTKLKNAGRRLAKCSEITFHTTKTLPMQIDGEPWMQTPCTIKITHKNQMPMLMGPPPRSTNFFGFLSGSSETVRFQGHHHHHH
# Human venous whole blood = experiment: Human whole blood IFN-γ assay; format: cell-based; conditions: human whole blood, anti-CD3 plus anti-CD28, 24 hours, 3 μM reference compound = 100% activation, read-out: INFg Whole Blood Normalized Agonist EC50;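 also: blood from healthy donors exposed to compound for 1 h before stimulation with anti-CD3 and anti-CD28 at 1 µg/mL each, IFN-γ quantified in supernatant by AlphaLISA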
# human DGKζ = molecular target: T2, human DGKζ (Homo sapiens, UniProt Q13574); experiment: DGKζ LIPGLO assay (extruded liposome substrate), in vitro DGK inhibition; format: biochemical; conditions: DGKζ liposome (LIPGLO) assay; read-out: DGKz LIPGLO IC50
# T2 construct: TVMV protease cleavage site (C); Hexa-His (C); made in house; host or cells: Sf9 insect cells (baculovirus, Bac-to-Bac)
# T2 sequence (Q13574 with tags, fused parts or gaps isoform Q13574-4): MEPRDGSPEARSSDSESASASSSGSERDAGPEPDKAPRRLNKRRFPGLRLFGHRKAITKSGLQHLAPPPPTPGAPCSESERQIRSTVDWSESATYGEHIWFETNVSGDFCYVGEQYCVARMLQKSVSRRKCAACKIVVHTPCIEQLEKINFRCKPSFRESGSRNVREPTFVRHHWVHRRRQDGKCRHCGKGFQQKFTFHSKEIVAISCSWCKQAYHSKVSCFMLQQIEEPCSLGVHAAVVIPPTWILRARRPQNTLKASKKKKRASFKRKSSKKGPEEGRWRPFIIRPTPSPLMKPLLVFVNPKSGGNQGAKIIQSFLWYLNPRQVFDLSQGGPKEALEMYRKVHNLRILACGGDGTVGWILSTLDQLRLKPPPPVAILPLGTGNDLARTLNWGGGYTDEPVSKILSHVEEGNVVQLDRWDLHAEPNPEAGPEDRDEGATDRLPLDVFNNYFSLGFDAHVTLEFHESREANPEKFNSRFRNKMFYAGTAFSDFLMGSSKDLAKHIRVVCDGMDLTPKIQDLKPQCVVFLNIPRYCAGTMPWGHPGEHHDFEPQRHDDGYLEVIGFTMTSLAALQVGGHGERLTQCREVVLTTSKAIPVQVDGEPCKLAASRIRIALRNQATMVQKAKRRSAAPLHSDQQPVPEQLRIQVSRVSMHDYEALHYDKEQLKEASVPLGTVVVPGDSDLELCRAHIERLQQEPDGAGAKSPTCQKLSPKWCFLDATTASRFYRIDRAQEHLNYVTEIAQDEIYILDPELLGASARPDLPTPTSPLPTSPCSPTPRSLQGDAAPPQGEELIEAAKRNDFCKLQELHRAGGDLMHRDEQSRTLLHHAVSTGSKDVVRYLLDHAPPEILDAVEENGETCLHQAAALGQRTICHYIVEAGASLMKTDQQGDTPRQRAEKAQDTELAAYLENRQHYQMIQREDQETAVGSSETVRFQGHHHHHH
# [1] = DGKα liposome (LIPGLO) assay, read-out: DGKa LIPGLO IC50
# [2] = DGKa LIPGLO IC50, DGKα liposome (LIPGLO) assay
IC50 (human DGKα; [1]),IC50 (human DGKζ),IC50 (human DGKα; [2]),Compound,EC50 (Human venous whole blood),"EC50 (Human venous whole blood; Homo sapiens, 24 h)"
140 µM,2.3 µM,–,"CCc1ccccc1C(c1ccc(F)cc1)N1C[C@H](C)N(c2c(C#N)c(=O)n(C)c3ccc(C#N)nc23)C[C@H]1C (single isomer, unassigned) [Example 809]",–,20 µM
240 µM,23 µM,–,"CCc1ccccc1C(c1ccc(F)cc1)N1C[C@H](C)N(c2c(C#N)c(=O)n(C)c3ccc(C#N)nc23)C[C@H]1C (single isomer, unassigned) [Example 810]",20 µM,–
9.3 µM,2.6 µM,–,"CCc1ccc(C(c2ccc(F)cc2)N2C[C@H](C)N(c3c(C#N)c(=O)n(C)c4ccc(C#N)nc34)C[C@H]2C)cc1 (single isomer, unassigned) [Example 811]",–,2.1 µM
17 µM,0.51 µM,–,"CCc1ccc(C(c2ccc(F)cc2)N2C[C@H](C)N(c3c(C#N)c(=O)n(C)c4ccc(C#N)nc34)C[C@H]2C)cc1 (single isomer, unassigned) [Example 812]",2.8 µM,–
2.3 µM,2.9 µM,–,"C[C@@H]1CN(c2c(C#N)c(=O)n(C)c3ccc(C#N)nc23)[C@@H](C)CN1C(c1ccc(Cl)cc1)c1ncccc1F (single isomer, unassigned) [Example 819]",–,2.2 µM
0.92 µM,2 µM,–,"C[C@@H]1CN(c2c(C#N)c(=O)n(C)c3ccc(C#N)nc23)[C@@H](C)CN1C(c1ccc(F)cc1)c1ncccc1F (single isomer, unassigned) [Example 820]",–,2.2 µM
2.7 µM,6.5 µM,–,"C[C@@H]1CN(c2c(C#N)c(=O)n(C)c3ccc(C#N)nc23)[C@@H](C)CN1C(c1ccc(F)cc1)c1ncccc1F (single isomer, unassigned) [Example 821]",3.4 µM,–
2.7 µM,13 µM,–,"C[C@@H]1CN(c2c(C#N)c(=O)n(C)c3ccc(C#N)nc23)[C@@H](C)CN1C(c1ccc(Cl)cc1)c1ncccc1F (single isomer, unassigned) [Example 822]",3.2 µM,–
18 µM,40 µM,–,"C[C@@H]1CN(c2c(C#N)c(=O)n(C)c3ccc(C#N)nc23)[C@@H](C)CN1C(c1ccc(F)cc1)c1ccc(C#N)cc1 (single isomer, unassigned) [Example 823]",7.6 µM,–
16 µM,11 µM,–,"C[C@@H]1CN(c2c(C#N)c(=O)n(C)c3ccc(C#N)nc23)[C@@H](C)CN1C(c1ccc(F)cc1)c1ccc(C#N)cc1 (single isomer, unassigned) [Example 824]",3.2 µM,–
5.5 µM,8 µM,–,"C[C@@H]1CN(c2c(C#N)c(=O)n(C)c3ccc(C#N)nc23)[C@@H](C)CN1C(c1ccc(Cl)cc1)c1ccc(F)cn1 (single isomer, unassigned) [Example 829]",–,1.2 µM
1.5 µM,9.6 µM,–,"C[C@@H]1CN(c2c(C#N)c(=O)n(C)c3ccc(C#N)nc23)[C@@H](C)CN1C(c1ccc(Cl)cc1)c1ccc(F)cn1 (single isomer, unassigned) [Example 830]",1.9 µM,–
4.7 µM,4.9 µM,–,"C[C@@H]1CN(c2c(C#N)c(=O)n(C)c3ccc(C#N)nc23)[C@@H](C)CN1C(c1ccc(F)cc1)c1ccc(C(F)(F)F)cn1 (single isomer, unassigned) [Example 836]",–,1.1 µM
1.2 µM,3.3 µM,–,"C[C@@H]1CN(c2c(C#N)c(=O)n(C)c3ccc(C#N)nc23)[C@@H](C)CN1C(c1ccc(F)cc1)c1ccccn1 (single isomer, unassigned) [Example 842]",20 µM,–

# Second part, the compound before the results:
Compound,IC50 (human DGKα; [1]),IC50 (human DGKζ),IC50 (human DGKα; [2]),EC50 (Human venous whole blood),"EC50 (Human venous whole blood; Homo sapiens, 24 h)"
"CC(C)c1nnc(C(c2ccc(F)cc2)N2C[C@H](C)N(c3cc(=O)n(C)c4ccc(C#N)nc34)C[C@H]2C)s1 (single isomer, unassigned) [Example 773]",0.76 µM,0.7 µM,–,7.9 µM,–
"C[C@@H]1CN(c2cc(=O)n(C)c3ccc(C#N)nc23)[C@@H](C)CN1C(c1ccc(F)cc1)c1nc(C2CC2)co1 (single isomer, unassigned) [Example 777]",0.068 µM,0.75 µM,–,–,0.77 µM
"C[C@@H]1CN(c2cc(=O)n(C)c3ccc(C#N)nc23)[C@@H](C)CN1C(c1ccc(F)cc1)c1nc(C(C)(C)C)co1 (single isomer, unassigned) [Example 779]",0.11 µM,0.012 µM,–,–,0.01 µM
"CC(c1c(F)cccc1F)N1C[C@H](C)N(c2c(C#N)c(=O)n(C)c3ccc(C#N)nc23)C[C@H]1C (single isomer, unassigned) [Example 780]",1.5 µM,31 µM,–,–,14 µM
"CC(c1c(F)cccc1F)N1C[C@H](C)N(c2c(C#N)c(=O)n(C)c3ccc(C#N)nc23)C[C@H]1C (single isomer, unassigned) [Example 781]",0.074 µM,0.12 µM,–,–,0.83 µM
"CC(c1ccc(F)cc1)N1C[C@H](C)N(c2c(C#N)c(=O)n(C)c3ccc(C#N)nc23)C[C@H]1C (single isomer, unassigned) [Example 782]",0.18 µM,3.4 µM,–,–,1.1 µM
"Cc1ccc(C(C)N2C[C@H](C)N(c3c(C#N)c(=O)n(C)c4ccc(C#N)nc34)C[C@H]2C)cc1 (single isomer, unassigned) [Example 784]",1.2 µM,2.6 µM,–,2 µM,–
"Cc1ccc(C(C)N2C[C@H](C)N(c3c(C#N)c(=O)n(C)c4ccc(C#N)nc34)C[C@H]2C)cc1 (single isomer, unassigned) [Example 785]",0.69 µM,> 250 µM,–,6.4 µM,–
"CC(c1ccc(Cl)cc1)N1C[C@H](C)N(c2c(C#N)c(=O)n(C)c3ccc(C#N)nc23)C[C@H]1C (single isomer, unassigned) [Example 791]",–,5.7 µM,1.9 µM,1.3 µM,–
"CC(c1ccc(Cl)cc1)N1C[C@H](C)N(c2c(C#N)c(=O)n(C)c3ccc(C#N)nc23)C[C@H]1C (single isomer, unassigned) [Example 792]",–,83 µM,1.5 µM,21 µM,–
"COC(=O)c1cccc(C(C)N2C[C@H](C)N(c3c(C#N)c(=O)n(C)c4ccc(C#N)nc34)C[C@H]2C)c1 (single isomer, unassigned) [Example 795]",13 µM,160 µM,–,–,20 µM
"COC(=O)c1cccc(C(C)N2C[C@H](C)N(c3c(C#N)c(=O)n(C)c4ccc(C#N)nc34)C[C@H]2C)c1 (single isomer, unassigned) [Example 796]",240 µM,2.2 µM,–,20 µM,–
"CC(c1ccccc1F)N1C[C@H](C)N(c2c(C#N)c(=O)n(C)c3ccc(C#N)nc23)C[C@H]1C (single isomer, unassigned) [Example 797]",1.8 µM,8.6 µM,–,1.8 µM,–
"CC(c1ccccc1F)N1C[C@H](C)N(c2c(C#N)c(=O)n(C)c3ccc(C#N)nc23)C[C@H]1C (single isomer, unassigned) [Example 798]",9.8 µM,> 250 µM,–,20 µM,–
"COc1ccc(C(C)N2C[C@H](C)N(c3c(C#N)c(=O)n(C)c4ccc(C#N)nc34)C[C@H]2C)nc1 (single isomer, unassigned) [Example 799]",0.86 µM,9.9 µM,–,20 µM,–
"COc1ccc(C(C)N2C[C@H](C)N(c3c(C#N)c(=O)n(C)c4ccc(C#N)nc34)C[C@H]2C)nc1 (single isomer, unassigned) [Example 800]",0.38 µM,0.33 µM,–,5.9 µM,–
"CC(c1ccc(OC(F)(F)F)cc1)N1C[C@H](C)N(c2c(C#N)c(=O)n(C)c3ccc(C#N)nc23)C[C@H]1C (single isomer, unassigned) [Example 801]",0.068 µM,2.2 µM,–,–,13 µM
"CC(c1ccc(OC(F)(F)F)cc1)N1C[C@H](C)N(c2c(C#N)c(=O)n(C)c3ccc(C#N)nc23)C[C@H]1C (single isomer, unassigned) [Example 802]",1.3 µM,24 µM,–,10 µM,–
"Cc1cc(C(C)N2C[C@H](C)N(c3c(C#N)c(=O)n(C)c4ccc(C#N)nc34)C[C@H]2C)no1 (single isomer, unassigned) [Example 803]",2 µM,7 µM,–,–,20 µM
"Cc1cc(C(C)N2C[C@H](C)N(c3c(C#N)c(=O)n(C)c4ccc(C#N)nc34)C[C@H]2C)no1 (single isomer, unassigned) [Example 804]",6.9 µM,32 µM,–,20 µM,–
"C[C@@H]1CN(c2c(C#N)c(=O)n(C)c3ccc(C#N)nc23)[C@@H](C)CN1C(c1ccccc1)c1cc(F)cc(F)c1 (single isomer, unassigned) [Example 813]",85 µM,3.7 µM,–,20 µM,–
"C[C@@H]1CN(c2c(C#N)c(=O)n(C)c3ccc(C#N)nc23)[C@@H](C)CN1C(c1ccccc1)c1cc(F)cc(F)c1 (single isomer, unassigned) [Example 814]",35 µM,1 µM,–,5.5 µM,–
"C[C@@H]1CN(c2c(C#N)c(=O)n(C)c3ccc(C#N)nc23)[C@@H](C)CN1C(c1cccc(F)c1)c1ccc(C(F)(F)F)cn1 (single isomer, unassigned) [Example 840]",22 µM,2.8 µM,–,0.81 µM,–
"C[C@@H]1CN(c2c(C#N)c(=O)n(C)c3ccc(C#N)nc23)[C@@H](C)CN1C(c1cccc(F)c1)c1ccc(C(F)(F)F)cn1 (single isomer, unassigned) [Example 841]",83 µM,11 µM,–,3.3 µM,–
